Reference: US10471024B2, “Increased effectiveness of allylamine drug compounds for topical treatment of fungal infections of the skin and skin appendages” (BIOPHILE CORPORATION, LTD., priority 2007, dated 2019)
Counter-ions that a name gives are not always drawn.

Experiments:
[1] = theoretical fraction of positively charged terbinafine from pKa; assay type: physicochemical
Source text: The positive charge can be determined by examining the pKa of the active ingredient. […] At pH<pKa, the positively charged terbinafine is more than 50%. When pH>pKa the positively charged terbinafine is less than 50%.

[2] = 0.5% in methanol/water (4:6), 25 degrees Celsius; cited from earlier work
[3] = zeta potential of terbinafine hydrochloride solution; assay type: physicochemical; conditions: 0.02 g/ml solution
Source text: Prototype measurements of zeta potential of the 0.02 g/ml terbinafine hydrochloride solution and the result is positive at pH of below 5.11. However, there are other anions in the solution, e.g., chloride ion and hydroxide ion (sodium hydroxide was used to adjust the solution pH) that make negative values of zeta potential. [table]

| positively charged terbinafine ([1]; pH 5.10) | positively charged terbinafine molecules ([1]; pH 7.10) [%] | positively charged terbinafine ([1]; pH 9.10) | Zeta Potential ([3]; pH 3.68) | Zeta Potential ([3]; pH 5.11) | Zeta Potential ([3]; pH 7.07 (adjusted with sodium hydroxide)) [mV] | Zeta Potential ([3]; pH 8.73 (adjusted with sodium hydroxide)) [mV] | Structure (SMILES) | pH of a solution [2] |
| --- | --- | --- | --- | --- | --- | --- | --- | --- |
| about 99% | 50 | about 1% | – | – | – | – | CN(C/C=C/C#CC(C)(C)C)Cc1cccc2ccccc12 [Terbinafine] | – |
| – | – | – | +12.1 mV | +31.2 mV | −34.0 | −58.8 | CN(C/C=C/C#CC(C)(C)C)Cc1cccc2ccccc12 [Terbinafine hydrochloride] | approximately 4.7 |
